According to PubChem BioAssay (NCI):
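Where inhibition never reached the appropriate level, the endpoint shown equals the highest concentration tested. Otherwise, values were interpolated linearly from a five-concentration, 48-hour dose response in 96-well plates. GI50: concentration for 50% inhibition of growth. At the TGI there is no net growth.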

tested on: NCI-H226 lung; experiment: inhibition of tumour cell growth, NCI panel, 48 h

Structure (SMILES)	GI50 [µM]	TGI [µM]
COc1ccc2c(c1)C(=O)c1c-2c(OCCN(C)C)nc2cc(OC)c(OC)cc12	2.95	22.1
COc1ccc(COCC[C@H](C)OC2OC(CO)C(O)C(O)C2O)cc1 (some centres not stated)		> 100

tested on: NCI-H23 lung; experiment: inhibition of tumour cell growth, NCI panel, 48 h

Structure (SMILES)	GI50 [µM]	TGI [µM]
CCn1c(-c2nonc2N)nc2cnc(Oc3cccc(NC(=O)c4ccc(N(C)C)cc4)c3)cc21	> 25	> 25
Cc1cc(S(N)(=O)=O)c(S/C(=N\NS(=O)(=O)c2ccccc2)c2ccc(Cl)cc2)cc1Cl	87.9	> 100
COc1ccc2c(c1)C(=O)c1c-2c(OCCN(C)C)nc2cc(OC)c(OC)cc12	9.32	22.9
COc1ccc(COCC[C@H](C)OC2OC(CO)C(O)C(O)C2O)cc1 (some centres not stated)		> 100

tested on: NCI-H460 lung; experiment: inhibition of tumour cell growth, NCI panel, 48 h

Structure (SMILES)	GI50 [µM]	TGI [µM]
CCn1c(-c2nonc2N)nc2cnc(Oc3cccc(NC(=O)c4ccc(N(C)C)cc4)c3)cc21	> 25	> 25
Cc1cc(S(N)(=O)=O)c(S/C(=N\NS(=O)(=O)c2ccccc2)c2ccc(Cl)cc2)cc1Cl	65.4	> 100
COc1ccc2c(c1)C(=O)c1c-2c(OCCN(C)C)nc2cc(OC)c(OC)cc12	1.22	15.3
COc1ccc(COCC[C@H](C)OC2OC(CO)C(O)C(O)C2O)cc1 (some centres not stated)		> 100

tested on: NCI-H522 lung; experiment: inhibition of tumour cell growth, NCI panel, 48 h

Structure (SMILES)	GI50 [µM]	TGI [µM]
CCn1c(-c2nonc2N)nc2cnc(Oc3cccc(NC(=O)c4ccc(N(C)C)cc4)c3)cc21	> 13.8	> 25
Cc1cc(S(N)(=O)=O)c(S/C(=N\NS(=O)(=O)c2ccccc2)c2ccc(Cl)cc2)cc1Cl	23.2	87.7
COc1ccc2c(c1)C(=O)c1c-2c(OCCN(C)C)nc2cc(OC)c(OC)cc12	10.6	> 100
COc1ccc(COCC[C@H](C)OC2OC(CO)C(O)C(O)C2O)cc1 (some centres not stated)		> 100

tested on: NCI/ADR-RES ovarian; experiment: inhibition of tumour cell growth, NCI panel, 48 h

Structure (SMILES)	GI50 [µM]	TGI [µM]
CCn1c(-c2nonc2N)nc2cnc(Oc3cccc(NC(=O)c4ccc(N(C)C)cc4)c3)cc21	> 25	> 25
Cc1cc(S(N)(=O)=O)c(S/C(=N\NS(=O)(=O)c2ccccc2)c2ccc(Cl)cc2)cc1Cl	> 100	> 100
COc1ccc2c(c1)C(=O)c1c-2c(OCCN(C)C)nc2cc(OC)c(OC)cc12	4.58	42.3
COc1ccc(COCC[C@H](C)OC2OC(CO)C(O)C(O)C2O)cc1 (some centres not stated)		> 100

tested on: OVCAR-3 ovarian; experiment: inhibition of tumour cell growth, NCI panel, 48 h

Structure (SMILES)	GI50 [µM]	TGI [µM]
CCn1c(-c2nonc2N)nc2cnc(Oc3cccc(NC(=O)c4ccc(N(C)C)cc4)c3)cc21	> 25	> 25
Cc1cc(S(N)(=O)=O)c(S/C(=N\NS(=O)(=O)c2ccccc2)c2ccc(Cl)cc2)cc1Cl	47.6	> 100
COc1ccc2c(c1)C(=O)c1c-2c(OCCN(C)C)nc2cc(OC)c(OC)cc12	2.23	15.1
COc1ccc(COCC[C@H](C)OC2OC(CO)C(O)C(O)C2O)cc1 (some centres not stated)		> 100

tested on: OVCAR-4 ovarian; experiment: inhibition of tumour cell growth, NCI panel, 48 h

Structure (SMILES)	GI50 [µM]	TGI [µM]
CCn1c(-c2nonc2N)nc2cnc(Oc3cccc(NC(=O)c4ccc(N(C)C)cc4)c3)cc21	> 25	> 25
Cc1cc(S(N)(=O)=O)c(S/C(=N\NS(=O)(=O)c2ccccc2)c2ccc(Cl)cc2)cc1Cl	> 100	> 100
COc1ccc2c(c1)C(=O)c1c-2c(OCCN(C)C)nc2cc(OC)c(OC)cc12	2.81	> 100
COc1ccc(COCC[C@H](C)OC2OC(CO)C(O)C(O)C2O)cc1 (some centres not stated)		> 100

tested on: OVCAR-5 ovarian; experiment: inhibition of tumour cell growth, NCI panel, 48 h

Structure (SMILES)	GI50 [µM]	TGI [µM]
CCn1c(-c2nonc2N)nc2cnc(Oc3cccc(NC(=O)c4ccc(N(C)C)cc4)c3)cc21	> 25	> 25
Cc1cc(S(N)(=O)=O)c(S/C(=N\NS(=O)(=O)c2ccccc2)c2ccc(Cl)cc2)cc1Cl	> 100	> 100
COc1ccc2c(c1)C(=O)c1c-2c(OCCN(C)C)nc2cc(OC)c(OC)cc12	23.7	55.9
COc1ccc(COCC[C@H](C)OC2OC(CO)C(O)C(O)C2O)cc1 (some centres not stated)		> 100

tested on: OVCAR-8 ovarian; experiment: inhibition of tumour cell growth, NCI panel, 48 h

Structure (SMILES)	GI50 [µM]	TGI [µM]
CCn1c(-c2nonc2N)nc2cnc(Oc3cccc(NC(=O)c4ccc(N(C)C)cc4)c3)cc21	> 25	> 25
Cc1cc(S(N)(=O)=O)c(S/C(=N\NS(=O)(=O)c2ccccc2)c2ccc(Cl)cc2)cc1Cl	> 100	> 100
COc1ccc2c(c1)C(=O)c1c-2c(OCCN(C)C)nc2cc(OC)c(OC)cc12	1.62	> 100
COc1ccc(COCC[C@H](C)OC2OC(CO)C(O)C(O)C2O)cc1 (some centres not stated)		> 100

tested on: PC-3 prostate; experiment: inhibition of tumour cell growth, NCI panel, 48 h

Structure (SMILES)	GI50 [µM]	TGI [µM]
CCn1c(-c2nonc2N)nc2cnc(Oc3cccc(NC(=O)c4ccc(N(C)C)cc4)c3)cc21	12.4	> 25
Cc1cc(S(N)(=O)=O)c(S/C(=N\NS(=O)(=O)c2ccccc2)c2ccc(Cl)cc2)cc1Cl	38.9	> 100
COc1ccc2c(c1)C(=O)c1c-2c(OCCN(C)C)nc2cc(OC)c(OC)cc12	3.76	65.9
COc1ccc(COCC[C@H](C)OC2OC(CO)C(O)C(O)C2O)cc1 (some centres not stated)		> 100

tested on: RPMI-8226 leukemia; experiment: inhibition of tumour cell growth, NCI panel, 48 h

Structure (SMILES)	GI50 [µM]	TGI [µM]
CCn1c(-c2nonc2N)nc2cnc(Oc3cccc(NC(=O)c4ccc(N(C)C)cc4)c3)cc21	> 25	> 25
COc1ccc2c(c1)C(=O)c1c-2c(OCCN(C)C)nc2cc(OC)c(OC)cc12	1.26	5.23
COc1ccc(COCC[C@H](C)OC2OC(CO)C(O)C(O)C2O)cc1 (some centres not stated)		> 100

tested on: RXF 393 renal; experiment: inhibition of tumour cell growth, NCI panel, 48 h

Structure (SMILES)	GI50 [µM]	TGI [µM]
CCn1c(-c2nonc2N)nc2cnc(Oc3cccc(NC(=O)c4ccc(N(C)C)cc4)c3)cc21	16.9	> 25
COc1ccc2c(c1)C(=O)c1c-2c(OCCN(C)C)nc2cc(OC)c(OC)cc12	4.48	18.6
COc1ccc(COCC[C@H](C)OC2OC(CO)C(O)C(O)C2O)cc1 (some centres not stated)		> 100

tested on: SF-268 CNS; experiment: inhibition of tumour cell growth, NCI panel, 48 h

Structure (SMILES)	GI50 [µM]	TGI [µM]
CCn1c(-c2nonc2N)nc2cnc(Oc3cccc(NC(=O)c4ccc(N(C)C)cc4)c3)cc21	2.48	> 25
Cc1cc(S(N)(=O)=O)c(S/C(=N\NS(=O)(=O)c2ccccc2)c2ccc(Cl)cc2)cc1Cl	> 100	> 100
COc1ccc2c(c1)C(=O)c1c-2c(OCCN(C)C)nc2cc(OC)c(OC)cc12	0.731	16.3
COc1ccc(COCC[C@H](C)OC2OC(CO)C(O)C(O)C2O)cc1 (some centres not stated)		> 100

tested on: SF-295 CNS; experiment: inhibition of tumour cell growth, NCI panel, 48 h

Structure (SMILES)	GI50 [µM]	TGI [µM]
CCn1c(-c2nonc2N)nc2cnc(Oc3cccc(NC(=O)c4ccc(N(C)C)cc4)c3)cc21	12	> 25
Cc1cc(S(N)(=O)=O)c(S/C(=N\NS(=O)(=O)c2ccccc2)c2ccc(Cl)cc2)cc1Cl	22.5	> 100
COc1ccc2c(c1)C(=O)c1c-2c(OCCN(C)C)nc2cc(OC)c(OC)cc12	0.0293	0.21
COc1ccc(COCC[C@H](C)OC2OC(CO)C(O)C(O)C2O)cc1 (some centres not stated)		> 100

tested on: SF-539 CNS; experiment: inhibition of tumour cell growth, NCI panel, 48 h

Structure (SMILES)	GI50 [µM]	TGI [µM]
CCn1c(-c2nonc2N)nc2cnc(Oc3cccc(NC(=O)c4ccc(N(C)C)cc4)c3)cc21	18.7	> 25
Cc1cc(S(N)(=O)=O)c(S/C(=N\NS(=O)(=O)c2ccccc2)c2ccc(Cl)cc2)cc1Cl	> 100	> 100
COc1ccc2c(c1)C(=O)c1c-2c(OCCN(C)C)nc2cc(OC)c(OC)cc12	10.6	24.9
COc1ccc(COCC[C@H](C)OC2OC(CO)C(O)C(O)C2O)cc1 (some centres not stated)		> 100
